Data: patent US4057530A, “2-Phenyl-indole derivatives and process for preparing the same” (priority 1974, dated 1977)
Several values for one entry are separate records, joined by “and”; a condition that tells them apart may be missing. Equal values may be shown once. Entries after “also recorded” stand apart in the source; their conditions may differ.

Experiments:
mice = experiment: Acute toxicity by oral route in mice (LD50); assay type: in vivo; conditions: LD50 study
Experimental: (§1) The study of the acute toxicity of the stabilizers listed below was carried out by determining the dose of substance which provoked the death of 50% of the treated animals (LD50). A gummy suspension of the substance under study was administered by oral route to groups of at least ten mice and the following results were observed: […]

[1] = Acute toxicity by oral route in mice (LD50); assay type: in vivo; conditions: mouse, in vivo, gummy suspension
Experimental: as §1

[2] = Static thermostability of stabilized resin, GARDNER Scale Comparator, Compound A; conditions: 185° C
Experimental: (§2) The stabilizing power of the substances of the invention was studied from two points of view:
(§3) These studies were performed with six different formulae of vinyl resins (hereinafter referred to as Compounds).
(§4) The different compounds were mixed and calendered in a mixer of which the cylinders were heated to 160° C. The rigid sheets so obtained were then heated in an oven to a temperature between 180° C and 215° C, until incipient carbonization.
(§5) A stove with rotating drums, ventilated and equipped with a thermostat was used for this operation. In the trials described hereunder, the behaviour of a sheet containing the stabilizer to be tested was compared to that of a sheet of the same formula but containing 2-phenyl-indole as stabilizer.
(§6) 1. The colouration of the sheets, of which samples were removed from the stove at fixed intervals was compared to a standard scale of colouration, known as the GARDNER Scale, and expressed in terms of the reference figures of the GARDNER Scale.
(§7) Comparisons were made with a GARDNER Scale Comparator which contains 18 filters of coloured glass and which offers the possibility of observing by transparency and in a limited field of view both the sheet and the reference filters.

[3] = Static thermostability of stabilized resin, simplified method (GARDNER sub-scale), Compound A; conditions: 210° C
Experimental: as §2, §3, §4, §5
(§8) 2. It is also possible to use a simplified method which is more rapid and with which valid results are also obtained: a reference scale is drawn up with sheets of thermally treated polyvinyl chloride, of which the colourations have been definitely determined in GARDNER degrees as above. A GARDNER sub-scale is thus obtained in polyvinyl chloride sheets which can be directly compared to the sheets to be tested without using the comparator.
Finally, trials were carried out with Stabilizers 15, 16 and 17 and with 2-phenyl-indole. Compound A was used and the temperature was 210° C.

[4] = Thermostability of the stabilizers: thermogravimetric analysis; assay type: physicochemical; conditions: 80° C/hour, under air
Experimental: The thermostability of Stabilizer 8 and that of 2-phenyl-indole were studied by differential thermoanalysis and by thermogravimetric analysis.
This analysis necessitated two series of trials carried out under air and under inert gas (Argon) in order to eliminate any possible effect of oxygen. The results obtained were identical.
The temperature increase rate was 80° C/hour. Thermograms were drawn up under air for both 2-phenyl-indole (i) and for Stabilizer 8 (ii) and enabled the following conclusion to be drawn: […]

[5] = Static thermostability of stabilized resin, simplified method (GARDNER sub-scale), Compound E; conditions: 185° C
Experimental: as §2, §3, §4, §5, §8

[6] = Static thermostability of stabilized resin, simplified method (GARDNER sub-scale), Compound D; conditions: 185° C
Experimental: as §2, §3, §4, §5, §8

[7] = Sublimation of the stabilizers; assay type: physicochemical; conditions: 120° C, cold wall 13° C, 15 Torr, 150 min
Description: A sample of the substance to be tested was introduced into a test tube and heated under reduced pressure. The fraction of sublimated substance was recovered on a mobile cold wall.
After a certain period of time, the sublimated substance was weighed and the result expressed as a percentage of the weight of the starting-material.
The results obtained can only be of relative value, enabling a comparison to be made between two products tested under the same conditions.
Operating conditions (chosen at random).
Temperature of heating 120° C
Temperature of the cold wall
Duration of heating 150 minutes

[8] = Static thermostability of stabilized resin, GARDNER Scale Comparator, Compound B; conditions: 210° C
Experimental: as §2, §3, §4, §5, §6, §7
Compound B was used and the sheets obtained presented the following characteristics: […]

[9] = Sticking of the stabilized material; conditions: cylinders at 210° C, 3 min mixing / 3 min rest
Experimental: Compounds Nos. 609 and 675 were placed in a mixer of the type previously used for studying static thermostability with cylinders at a fixed temperature of 210° C.
They were submitted to alternate periods of 3 minutes of mixing and 3 minutes of rest.

[10] = assay type: physicochemical
Description: The thermostability of Stabilizer 8 and that of 2-phenyl-indole were studied by differential thermoanalysis and by thermogravimetric analysis. […] Diagrams were made out for 2-phenyl-indole (i) and Compound 8 (ii) and enabled the following conclusions to be drawn: […]

[11] = Static thermostability of stabilized resin, simplified method (GARDNER sub-scale), Compound C; conditions: 210° C
Experimental: as §2, §3, §4, §5, §8

SMILES: c1ccc(-c2cc3ccccc3[nH]2)cc1 [2-phenyl-indole]
- Toxic symptoms (mice): none
- LD50 [1]: > 3000 mg/kg
- Colouration of sheet (GARDNER Scale) ([2]; 0 min): 1 GARDNER degrees
- Colouration of sheet (GARDNER Scale) ([2]; 6 min): 1 GARDNER degrees
- Colouration of sheet (GARDNER Scale) ([2]; 12 min): 3 GARDNER degrees
- Colouration of sheet (GARDNER Scale) ([2]; 18 min): 5 GARDNER degrees
- Colouration of sheet (GARDNER Scale) ([2]; 24 min): 11 GARDNER degrees
- Colouration of sheet (GARDNER Scale) ([2]; 30 min): 12 GARDNER degrees
- Colouration of sheet (GARDNER Scale) ([2]; 36 min): 14 GARDNER degrees
- Colouration of sheet (GARDNER Scale) ([2]; 42 min): 14 GARDNER degrees
- Colouration of sheet (GARDNER Scale) ([2]; 48 min): 14 GARDNER degrees
- Colouration of sheet (GARDNER Scale) ([2]; 54 min): burnt
- Colouration of sheet (GARDNER sub-scale) ([3]; 0 min): 1 GARDNER degrees
- Colouration of sheet (GARDNER sub-scale) ([3]; 3 min): 2 GARDNER degrees and 1 GARDNER degrees
- Colouration of sheet (GARDNER sub-scale) ([3]; 3 min, listed as 2-phenyl-inodle): 2 GARDNER degrees
- Colouration of sheet (GARDNER sub-scale) ([3]; 6 min): 2.5 GARDNER degrees and 2 GARDNER degrees and 3 GARDNER degrees
- Colouration of sheet (GARDNER sub-scale) ([3]; 6 min, listed as 2-phenyl-inodle): 3 GARDNER degrees
- Colouration of sheet (GARDNER sub-scale) ([3]; 9 min, listed as 2-phenyl-inodle): 8 GARDNER degrees
- Colouration of sheet (GARDNER sub-scale) ([3]; 12 min): 11 GARDNER degrees and 10 GARDNER degrees and 9 GARDNER degrees
- Colouration of sheet (GARDNER sub-scale) ([3]; 12 min, listed as 2-phenyl-inodle): 11 GARDNER degrees
- Colouration of sheet (GARDNER sub-scale) ([3]; 15 min): 13 GARDNER degrees and 12 GARDNER degrees and 14 GARDNER degrees
- Colouration of sheet (GARDNER sub-scale) ([3]; 15 min, listed as 2-phenyl-inodle): 12 GARDNER degrees
- Colouration of sheet (GARDNER sub-scale) ([3]; 18 min): burnt
- Burning of sheet ([3]; at 15 min): burnt along its edges; also recorded: badly burnt
- Decomposition residue at 210° C [4]: a yellowish residue was, in fact, obtained at 210 °C which constitutes proof of decomposition
- Colouration of sheet (GARDNER sub-scale) ([5]; 0 min): < 1 GARDNER degrees
- Colouration of sheet (GARDNER sub-scale) ([5]; 10 min): 1 GARDNER degrees
- Colouration of sheet (GARDNER sub-scale) ([5]; 20 min): 2 GARDNER degrees
- Colouration of sheet (GARDNER sub-scale) ([5]; 30 min): 3 GARDNER degrees
- Colouration of sheet (GARDNER sub-scale) ([6]; 0 min): 1 GARDNER degrees
- Colouration of sheet (GARDNER sub-scale) ([6]; 10 min): 2 GARDNER degrees
- Colouration of sheet (GARDNER sub-scale) ([6]; 20 min): > 2 GARDNER degrees
- Colouration of sheet (GARDNER sub-scale) ([6]; 30 min): 3 GARDNER degrees
- Percentage of sublimated substance [7]: 26.9%
- Colouration of sheet (GARDNER Scale) ([8]; 0 min): 1 GARDNER degrees
- Colouration of sheet (GARDNER Scale) ([8]; 3 min): 1 GARDNER degrees
- Colouration of sheet (GARDNER Scale) ([8]; 6 min): 2 GARDNER degrees
- Colouration of sheet (GARDNER Scale) ([8]; 9 min): 3 GARDNER degrees
- Colouration of sheet (GARDNER Scale) ([8]; 12 min): 4 GARDNER degrees
- Colouration of sheet (GARDNER Scale) ([8]; 15 min): 6 GARDNER degrees
- Colouration of sheet (GARDNER Scale) ([8]; 18 min): 8 GARDNER degrees
- Colouration of sheet (GARDNER Scale) ([8]; 21 min): > 18 GARDNER degrees
- Thickness of sheet ([8]; after 21 min): 0.9 mm
- State of sheet ([8]; after 24 min): burnt
- Sticking of the stabilized material [9]: comparable
- Temperature from which it particularly sublimates (melting point) [10]: 185-190 °C
- Loss of water at 100° C ([10]; 2° C/minute): no loss of water at 100 °C
- Sublimation temperature ([10]; 2° C/minute): 140 °C
- Colouration of sheet (GARDNER sub-scale) ([11]; 0 min): 1 GARDNER degrees
- Colouration of sheet (GARDNER sub-scale) ([11]; 10 min): 1.5 GARDNER degrees
- Colouration of sheet (GARDNER sub-scale) ([11]; 20 min): 2 GARDNER degrees
- Colouration of sheet (GARDNER sub-scale) ([11]; 30 min): < 3 GARDNER degrees
- Colouration of sheet (GARDNER sub-scale) ([11]; 40 min): 3 GARDNER degrees
- Colouration of sheet (GARDNER sub-scale) ([11]; 50 min): > 3 GARDNER degrees
- Colouration of sheet (GARDNER sub-scale) ([11]; 55 min): 3.5 GARDNER degrees
- Colouration of sheet (GARDNER sub-scale) ([11]; 60 min): > 4 GARDNER degrees
